This is an account of results in article PMC5398486, “Cheminformatics-aided discovery of small-molecule Protein-Protein Interaction (PPI) dual inhibitors of Tumor Necrosis Factor (TNF) and Receptor Activator of NF-κB Ligand (RANKL)” (PLoS Computational Biology, 2017).

Data set [1] is described as follows: Solubility with PEG3350 as co-solvent. It counts as physicochemical. The source says: PEG3350 was used as co-solvent in order to enhance inhibitors solubility and thus eliminate the possibility of aggregates formation. | column: Solubility (μM)
Data set [2] has as its target T1, TNF (Homo sapiens, UniProt P01375). The data set can be described thus: Cross-linking experiments, TNF trimer formation. As to conditions: molar ratio of 4:1 relative to TNF, BS3 cross-linking. Set-up: purchased PeproTech. It counts as biochemical. On the procedure:
(§1) 100 ng of recombinant human TNF or RANKL (Peprotech) were incubated with the inhibitors for 30 min at room temperature and then subjected to cross-linking, using 4.8 mM BS3 (ThermoFisher Scientific) for 30 min at room temperature. The reaction was stopped by adding 1/10th volume of 1 M Tris-HCl, pH 7.5. Samples were then subjected to SDS-PAGE and western blotting using an anti human-TNF or RANKL antibody (both R&D Systems).
(§2) Human TNF or RANKL was incubated with T8 or T23, chemically cross-linked, and subjected to SDS-PAGE. This was followed by western blotting to detect the various TNF and RANKL multimers. Both inhibitors were used at a molar ratio of 4:1 relative to TNF and 1:1 relative to RANKL. Numbers indicate molecular weights in kDa; NC = non cross-linked control (no inhibitor, no cross-linking); CC = cross-linked control (no inhibitor).

The target of data set [3] is T2, human RANKL (Homo sapiens, UniProt O14788).
T2 sequence (O14788 140-317 limits assumed): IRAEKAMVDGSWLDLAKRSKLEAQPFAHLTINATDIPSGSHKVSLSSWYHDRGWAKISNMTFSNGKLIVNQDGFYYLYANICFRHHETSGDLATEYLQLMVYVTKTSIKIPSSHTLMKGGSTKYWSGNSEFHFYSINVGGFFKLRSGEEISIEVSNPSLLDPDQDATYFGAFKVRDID
Briefly: RANKL-induced osteoclastogenesis / osteoclastic (TRAP) activity assay in bone marrow cells. Conditions: 50 ng/ml human RANKL + 25 ng/ml M-CSF, read-out: IC50 (RANKL complexes, TRAP activity). Format: cell-based.
Protocol: To visualize osteoclasts, cell cultures were stained with TRAP (tartrate-resistant acid phosphatase), using an acid phosphatase leukocyte (TRAP) kit (Sigma-Aldrich). Osteoclasts were identified as TRAP-positive multinucleated cells containing more than three nuclei.
To measure osteoclast activity, bone marrow cells were cultured for four days as described above and lysed with 0.2% Triton X-100. TRAP activity was measured by the conversion of p-nitrophenyl phosphate to p-nitrophenol in the presence of sodium tartrate. Thus, cell lysates were incubated with 5.5 mM phosphatase substrate diluted in 100 mM citrate buffer and 10 mM sodium tartrate, for 40 minutes at 37°C. The reaction was stopped by addition of 0.4 N sodium hydroxide and absorbance was measured at 405 nm using a microplate reader (Molecular Devices). TRAP activity was normalized to total protein content as determined by the Bradford assay (Bio-Rad protein assay). TRAP activity per μg of total protein was expressed as a percentage of the positive control treated without compounds. IC50 values were calculated as mean ± SEM from three independent experiments performed in duplicate.

The target in data set [4] is T1, TNF. The data set can be described thus: Fluorescence-based binding affinity assay, TNF. Set-up: made in house. Conditions: for 'n' value from Scatchard plot (ligand binding sites per protein molecule): TNF, binding assay raw data. On the procedure:
For use in the binding assays, recombinant TNF and RANKL were expressed and purified as previously described.[84–86] Fluorescence intensity was measure with a Synergy H1 Multi-Mode Reader (BioTek) in 96-well microplates (black) at 25°C. […] During preparation of the solutions the buffer was firstly added to all wells followed by the ligand solution and finally the protein was added. All solutions were mixed by pipetting and equilibrated for 1h at 25°C before measurement. […] Experiments were performed for TNF in 10 mM citrate-phosphate (pH 6.5) and for RANKL in 25 mM Tris–HCl buffer, 100 mM NaCl (pH 7.5); both buffers were supplemented with PEG3350 at the concentrations indicated in the respective figures. Kd values were calculated as mean ± SEM from three independent experiments.
Differences in fluorescence intensity between the protein/ligand complex and free protein (or free ligand) were analysed as previously described in [Papaneophytou et al. (2013) ACS Med Chem Lett. 4: 137-141] (Eq. S6) in order to determine the dissociation constant (Kd) of the various protein-ligand systems.
In Eq. (S6) Fobs is the observed fluorescence intensity; FBG is the fluorescence background signal; MFLF [picture] and PF are the molar fluorescence and concentration of free protein, respectively; FR is the fluorescence ratio of bound protein (or bound ligand in the case of a fluorescence ligand); LT and PT are the total concentrations of ligand and protein, respectively. A detailed analysis of the development of the fluorescence ligand-binding assay is given in [Papaneophytou et al. (2013) ACS Med Chem Lett. 4: 137-141].

For data set [5], the target named is T3, human RANKL (Homo sapiens, UniProt O14788).
T3 construct: purchased Peprotech
T3 sequence (O14788 143-317 limits assumed): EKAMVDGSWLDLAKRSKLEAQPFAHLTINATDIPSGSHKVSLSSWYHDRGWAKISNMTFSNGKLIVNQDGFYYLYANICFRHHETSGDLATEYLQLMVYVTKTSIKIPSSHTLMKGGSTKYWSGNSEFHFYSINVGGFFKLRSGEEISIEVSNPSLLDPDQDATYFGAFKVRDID
Briefly: Cross-linking experiments, RANKL trimer formation. Conditions: molar ratio of 1:1 relative to RANKL, BS3 cross-linking. Format: biochemical. As to the method:
as §1, §2

Another data set is described as follows: BM viability (MTT assay). It counts as cell-based. Conditions: primary bone marrow cells, M-CSF 25 ng/mL, read-out: LC50 (RANKL complexes, BM viability). On the procedure: BMs were plated on 96-well plates at a density of 10^5 cells/well and treated with T8 and T23 at various concentrations, in the presence of M-CSF (25 ng/mL) for 48 hours. Cell viability was determined by the 3-(4,5-dimethylthiazol-2-yl)-2,5-diphenyltetrazolium bromide (MTT) colorimetric assay, which measures the ability of viable cells to reduce a soluble tetrazolium salt to an insoluble purple formazan precipitate.[63] After removal of the medium, each well was incubated with 0.5 mg/mL MTT (Sigma-Aldrich, St. Louis, MO) in serum-free α-MEM at 37°C for 3 h. At the end of the incubation period, the medium was removed and the intracellular formazan was solubilized with 200 μL DMSO and quantified by reading the absorbance at 550 nm on a microplate reader (Optimax; Molecular Devices, Sunnyvale, CA). Cell viability (%) was expressed as a percentage of the negative control treated without compounds. LC50 values were calculated as mean ± SEM from three independent experiments.

Data set [6] in a line: Measurement of cytotoxicity in L929 cells (crystal violet). It counts as cell-based. As to conditions: mouse, compound alone, read-out: L929 LC50. As to the method:
L929 cells were seeded onto a 96-well plate (3x10^4 cells/well). After 24 h, cells were treated with the compounds at increasing concentrations. DMSO was used in the untreated control. The next day, a PBS-washing step was performed to remove dead cells. The remaining live cells were next fixed with methanol and stained with crystal violet. After solubilization with acetic acid, staining was quantified spectrophotometrically at 570 nm. Survival is expressed with respect to the untreated control. Experiments were performed in triplicate.

Where [7] appears, read: 2.5% v/v PEG3350 as co-solvent, PEG3350 2.5% v/v.
Setting [8] is: 5% v/v PEG3350 as co-solvent, aqueous with cosolvent or surfactant or cyclodextrin, PEG3350 5% v/v.
Where [9] appears, read: TNF 0.75 μM, PEG3350 2.5%, 10 mM Citrate-phosphate buffer pH 6.5, read-out: Binding affinity (Kd), TNF.
Setting [10] is: TNF 0.75 μM, PEG3350 5%, 10 mM Citrate-phosphate buffer pH 6.5, read-out: Binding affinity (Kd), TNF.
The mark [11] stands for this setting: TNF 1.5 μM, PEG3350 5%, 10 mM Citrate-phosphate buffer pH 6.5, read-out: Binding affinity (Kd), TNF.
Setting [12] is: TNF 2.5 μM, PEG3350 5%, 10 mM Citrate-phosphate buffer pH 6.5, read-out: Binding affinity (Kd), TNF.
Setting [13] is: fluorescence assay, 25°C, citrate-phosphate buffer, 5% PEG3350, read-out: Kd (TNF complexes).

Structures are written as SMILES. In brackets after ≈: the same amount, converted by molar mass. Where two headings read alike, the source gives them in different places.

T1 sequence (P01375 77-233 limits assumed): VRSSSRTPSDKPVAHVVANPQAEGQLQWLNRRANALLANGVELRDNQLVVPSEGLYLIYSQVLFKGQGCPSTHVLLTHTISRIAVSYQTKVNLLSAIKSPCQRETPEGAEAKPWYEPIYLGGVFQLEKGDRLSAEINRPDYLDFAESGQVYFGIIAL

For `O=C(NNC(=NS(=O)(=O)c1ccc(-n2nc(C(F)(F)F)cc2-c2cccs2)cc1)N1CCCC1)c1ccc(Cl)cc1` [Compound T8, N-[(4-chlorobenzoyl)amino]-N'-[4-[5-thiophen-2-yl-3-(trifluoromethyl)pyrazol-1-yl]phenyl]sulfonylpyrrolidine-1-carboximidamide], the results for the solubility in data set [1] (setting [7]), in data set [1] (setting [8]) and in data set [1] (PEG3350 0% v/v) were 32 µM (≈ 19.9 µg/mL), 48 µM (≈ 29.9 µg/mL) and less than 1 µM, respectively. At TNF [2], the “formation of TNF trimers (cross-linking, western blot)” value is “obstruct the formation of active TNF and RANKL trimers”. Further, the IC50 on human RANKL [3] is 9 ± 0.7 µM. The Kd at TNF [4] (setting [9]) is 9.55 ± 0.81 µM; on TNF [4] (setting [10]) it was 8.78 ± 0.76 µM; at TNF [4] (setting [11]) it was 9.02 ± 0.88 µM; on TNF [4] (setting [12]), 9.17 ± 0.88 µM; at TNF [4] (setting [13]) it was 8.8 ± 0.8 µM. Besides, the “'n' value from Scatchard plot (ligand binding sites per protein molecule)” value on TNF [4] stood at 1. In addition, on human RANKL [5], the “formation of RANKL trimers (cross-linking, western blot)” value is “obstruct the formation of active TNF and RANKL trimers”. Also, the CC50 at 48 h in the data set “BM viability (MTT assay)” is 42.6 ± 4.3 µM. In addition, in data set [6], the CC50 at 1 day was greater than 100 µM.
Regarding `COc1cc(OC(C)=O)c(-c2cc(OC(C)=O)c(OC)cc2OC(C)=O)cc1OC(C)=O` [Compound T23, [4-acetyloxy-2-(2,5-diacetyloxy-4-methoxyphenyl)-5-methoxyphenyl] acetate], the solubility stood at 88 µM in data set [1] (setting [7]), 117 µM in data set [1] (setting [8]) and 36 µM in data set [1] (PEG3350 0% v/v). In addition, the “formation of TNF trimers (cross-linking, western blot)” value at TNF [2] is “obstruct the formation of active TNF and RANKL trimers”. The IC50 on human RANKL [3] was 2.6 ± 0.2 µM. For the same compound, the Kd worked out at 2.53 ± 0.23 µM at TNF [4] (TNF 0.75 μM, PEG3350 0%, 10 mM Citrate-phosphate buffer pH 6.5, read-out: Binding affinity (Kd), TNF); 3.02 ± 0.31 µM on TNF [4] (setting [9]); 2.8 ± 0.19 µM on TNF [4] (setting [10]); 2.63 ± 0.25 µM on TNF [4] (setting [11]); 2.98 ± 0.47 µM at TNF [4] (setting [12]); 2.8 ± 0.2 µM at TNF [4] (setting [13]). The “'n' value from Scatchard plot (ligand binding sites per protein molecule)” value at TNF [4] worked out at 1. The “formation of RANKL trimers (cross-linking, western blot)” value at human RANKL [5] was “obstruct the formation of active TNF and RANKL trimers”. Moreover, in the data set “BM viability (MTT assay)”, the CC50 at 48 h was determined as 5.9 ± 0.3 µM. Besides, the CC50 at 1 day in data set [6] is greater than 100 µM.
